The NIST ThermoML archive (doi:10.1016/j.jct.2005.07.009)

How the values were obtained:
[1] = excess molar enthalpy (molar enthalpy of mixing); xn = mol fraction of the nth substance listed; settings: 298.15 K, 101 kPa, Liquid
[2] = xn = mol fraction of the nth substance listed; settings: 298.15 K, 101 kPa, Liquid, Vibrating tube method

BrCCCCBr [1,4-dibromobutane] + CCOC(=O)CC
Settings | excess molar enthalpy [kcal/mol] | mass density [kg/m3]
[1], x2 = 0.0536 | 0.00581 | –
[1], x2 = 0.1124 | 0.00918 | –
[1], x2 = 0.1759 | 0.0118 | –
[1], x2 = 0.2389 | 0.0119 | –
[1], x2 = 0.2996 | 0.0102 | –
[1], x2 = 0.357 | 0.00696 | –
[1], x2 = 0.4101 | 0.00217 | –
[1], x2 = 0.4558 | -0.00277 | –
[1], x2 = 0.4841 | -0.00619 | –
[1], x2 = 0.4948 | -0.00739 | –
[1], x2 = 0.5354 | -0.012 | –
[1], x2 = 0.5917 | -0.0157 | –
[1], x2 = 0.653 | -0.0173 | –
[1], x2 = 0.72 | -0.0174 | –
[1], x2 = 0.7905 | -0.015 | –
[1], x2 = 0.8639 | -0.011 | –
[1], x2 = 0.9353 | -0.00614 | –
[2], x2 = 0.1225 | – | 1707.2
[2], x2 = 0.1797 | – | 1654.41
[2], x2 = 0.2372 | – | 1601.35
[2], x2 = 0.299 | – | 1544.11
[2], x2 = 0.3597 | – | 1488.19
[2], x2 = 0.479 | – | 1376.63
[2], x2 = 0.5912 | – | 1271.5
[2], x2 = 0.6516 | – | 1214.75
[2], x2 = 0.7649 | – | 1107.74
[2], x2 = 0.8159 | – | 1059.5
[2], x2 = 0.8793 | – | 999.28
[2], x2 = 0.9306 | – | 950.5

BrCCCBr [1,3-dibromopropane] + CCOC(C)=O
Settings | excess molar enthalpy [kcal/mol] | mass density [kg/m3]
[1], x2 = 0.0601 | 0.0131 | –
[1], x2 = 0.127 | 0.0223 | –
[1], x2 = 0.195 | 0.0295 | –
[1], x2 = 0.2607 | 0.0333 | –
[1], x2 = 0.3258 | 0.0342 | –
[1], x2 = 0.3855 | 0.0332 | –
[1], x2 = 0.4407 | 0.0304 | –
[1], x2 = 0.4829 | 0.0271 | –
[1], x2 = 0.487 | 0.0269 | –
[1], x2 = 0.5298 | 0.0219 | –
[1], x2 = 0.5741 | 0.0169 | –
[1], x2 = 0.628 | 0.0109 | –
[1], x2 = 0.687 | 0.00531 | –
[1], x2 = 0.7498 | 0.000765 | –
[1], x2 = 0.8153 | -0.00174 | –
[1], x2 = 0.8813 | -0.00241 | –
[1], x2 = 0.9434 | -0.00136 | –
[2], x2 = 0.057 | – | 1910.48
[2], x2 = 0.1189 | – | 1845.49
[2], x2 = 0.1785 | – | 1782.59
[2], x2 = 0.2647 | – | 1691.31
[2], x2 = 0.3199 | – | 1632.54
[2], x2 = 0.4187 | – | 1526.9
[2], x2 = 0.466 | – | 1476.19
[2], x2 = 0.5091 | – | 1429.89
[2], x2 = 0.6323 | – | 1296.79
[2], x2 = 0.6746 | – | 1250.93
[2], x2 = 0.7715 | – | 1145.6
[2], x2 = 0.8309 | – | 1080.67
[2], x2 = 0.8892 | – | 1016.69
[2], x2 = 0.9615 | – | 937.08

BrCCCCCCBr [1,6-dibromohexane] + CCCCC(=O)OCC
Settings | excess molar enthalpy [kcal/mol] | mass density [kg/m3]
[1], x2 = 0.0622 | 0.00727 | –
[1], x2 = 0.1322 | 0.011 | –
[1], x2 = 0.2027 | 0.0138 | –
[1], x2 = 0.2702 | 0.015 | –
[1], x2 = 0.3359 | 0.0146 | –
[1], x2 = 0.3944 | 0.0124 | –
[1], x2 = 0.4464 | 0.00935 | –
[1], x2 = 0.4901 | 0.00566 | –
[1], x2 = 0.5274 | 0.00182 | –
[1], x2 = 0.5624 | -0.00213 | –
[1], x2 = 0.6245 | -0.00614 | –
[1], x2 = 0.6853 | -0.00767 | –
[1], x2 = 0.7481 | -0.00784 | –
[1], x2 = 0.8143 | -0.00715 | –
[1], x2 = 0.8791 | -0.00547 | –
[1], x2 = 0.947 | -0.00327 | –
[2], x2 = 0.0648 | – | 1555.13
[2], x2 = 0.1774 | – | 1474.02
[2], x2 = 0.2329 | – | 1433.91
[2], x2 = 0.2964 | – | 1387.86
[2], x2 = 0.4137 | – | 1302.47
[2], x2 = 0.5312 | – | 1216.59
[2], x2 = 0.5868 | – | 1175.74
[2], x2 = 0.6906 | – | 1099.24
[2], x2 = 0.7612 | – | 1047.08
[2], x2 = 0.819 | – | 1004.24
[2], x2 = 0.8814 | – | 957.89
[2], x2 = 0.934 | – | 918.67

CCCCC(=O)OCC [ethyl pentanoate] + BrCCBr
Settings | excess molar enthalpy [kcal/mol] | mass density [kg/m3]
[1], x1 = 0.0286 | 0.00476 | –
[1], x1 = 0.0632 | 0.0075 | –
[1], x1 = 0.103 | 0.00966 | –
[1], x1 = 0.1465 | 0.0103 | –
[1], x1 = 0.1918 | 0.0102 | –
[1], x1 = 0.2375 | 0.00848 | –
[1], x1 = 0.2837 | 0.00418 | –
[1], x1 = 0.3283 | -0.00098 | –
[1], x1 = 0.3711 | -0.00485 | –
[1], x1 = 0.4026 | -0.00825 | –
[1], x1 = 0.4465 | -0.0112 | –
[1], x1 = 0.4938 | -0.0142 | –
[1], x1 = 0.5538 | -0.0165 | –
[1], x1 = 0.6297 | -0.0178 | –
[1], x1 = 0.7132 | -0.0175 | –
[1], x1 = 0.8085 | -0.0143 | –
[1], x1 = 0.9099 | -0.00844 | –
[2], x1 = 0.0379 | – | 2085.1
[2], x1 = 0.0766 | – | 2004.73
[2], x1 = 0.1567 | – | 1851.43
[2], x1 = 0.1993 | – | 1776.2
[2], x1 = 0.2427 | – | 1703.76
[2], x1 = 0.2945 | – | 1622.25
[2], x1 = 0.3695 | – | 1512.8
[2], x1 = 0.5222 | – | 1317.39
[2], x1 = 0.6601 | – | 1166.3
[2], x1 = 0.7313 | – | 1096.12
[2], x1 = 0.8119 | – | 1022.28
[2], x1 = 0.9074 | – | 941.5

BrCCBr [1,2-dibromoethane] + CCOC(C)=O
Settings | excess molar enthalpy [kcal/mol] | mass density [kg/m3]
[1], x2 = 0.0529 | 0.00619 | –
[1], x2 = 0.1142 | 0.00951 | –
[1], x2 = 0.1754 | 0.0111 | –
[1], x2 = 0.2376 | 0.0103 | –
[1], x2 = 0.2976 | 0.00906 | –
[1], x2 = 0.3548 | 0.00643 | –
[1], x2 = 0.4086 | 0.0028 | –
[1], x2 = 0.4579 | -0.00112 | –
[1], x2 = 0.5045 | -0.00509 | –
[1], x2 = 0.536 | -0.00822 | –
[1], x2 = 0.5453 | -0.00877 | –
[1], x2 = 0.5935 | -0.0133 | –
[1], x2 = 0.6556 | -0.0167 | –
[1], x2 = 0.7113 | -0.0176 | –
[1], x2 = 0.7914 | -0.0161 | –
[1], x2 = 0.8635 | -0.0119 | –
[1], x2 = 0.9367 | -0.00602 | –
[2], x2 = 0.0526 | – | 2091.79
[2], x2 = 0.1032 | – | 2019.48
[2], x2 = 0.1562 | – | 1945.11
[2], x2 = 0.2107 | – | 1869.55
[2], x2 = 0.2686 | – | 1790.65
[2], x2 = 0.4371 | – | 1568.65
[2], x2 = 0.4987 | – | 1490.07
[2], x2 = 0.6182 | – | 1341.18
[2], x2 = 0.6799 | – | 1266.02
[2], x2 = 0.7399 | – | 1194.16
[2], x2 = 0.8065 | – | 1115.57
[2], x2 = 0.8705 | – | 1041.22
[2], x2 = 0.9341 | – | 968.46

BrCCCBr [1,3-dibromopropane] + CCCC(=O)OCC
Settings | excess molar enthalpy [kcal/mol] | mass density [kg/m3]
[1], x2 = 0.0406 | 0.00528 | –
[1], x2 = 0.0875 | 0.0082 | –
[1], x2 = 0.142 | 0.00906 | –
[1], x2 = 0.1949 | 0.00832 | –
[1], x2 = 0.2497 | 0.00576 | –
[1], x2 = 0.3027 | 0.00174 | –
[1], x2 = 0.3525 | -0.00265 | –
[1], x2 = 0.4005 | -0.00731 | –
[1], x2 = 0.4399 | -0.0109 | –
[1], x2 = 0.4453 | -0.0114 | –
[1], x2 = 0.4914 | -0.0149 | –
[1], x2 = 0.5444 | -0.0171 | –
[1], x2 = 0.6028 | -0.0185 | –
[1], x2 = 0.6668 | -0.019 | –
[1], x2 = 0.7369 | -0.0185 | –
[1], x2 = 0.8067 | -0.0161 | –
[1], x2 = 0.8771 | -0.0119 | –
[2], x2 = 0.0436 | – | 1908.9
[2], x2 = 0.0835 | – | 1854.01
[2], x2 = 0.1381 | – | 1781.05
[2], x2 = 0.1859 | – | 1719.07
[2], x2 = 0.2926 | – | 1586.65
[2], x2 = 0.4637 | – | 1389.88
[2], x2 = 0.5238 | – | 1324.96
[2], x2 = 0.6494 | – | 1195.57
[2], x2 = 0.7131 | – | 1133.02
[2], x2 = 0.7811 | – | 1068.34
[2], x2 = 0.852 | – | 1003.1
[2], x2 = 0.9215 | – | 941.15
